Patent US8822517B2, “Arylosulfonamides for the treatment of CNS diseases” (Adamed SP. Z O.O., priority 2010, dated 2014)

Experiments:
[1] = molecular target: T1, histaminergic H1 receptor (Homo sapiens, UniProt P35367); test: Binding assay H1 (h), [3H]pyrilamine, HEK-293 cells; parameters: expressed in transfected cells; host or cells: HEK-293 cells; conditions: read-out: H1 [%]
In short: (§1)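 Binding read by scintillation counting. Non-specific component defined by excess unlabelled ligand and removed from total counts. Compounds at 1×10^−6 M.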

[2] = molecular target: dopaminergic D2 receptor (Homo sapiens, UniProt P14416); test: Cellular functional assay, dopaminergic D2 receptor (agonism/antagonism); type: cell-based; conditions: HEK293; for activation at 1 µM: agonist effect, percent of control specific agonist response (3 μM dopamine for control), 1×10^−6 M, D2S (h), HEK-293 cells, read-out: D2-ag [%]; for inhibition at 1 µM: read-out: D2-antag. [%]
Description: (§2) The compounds were tested at the concentration of 1×10^−6M.
(§3) In the Tables ag refers to agonism, and antag to antagonism).

[3] = molecular target: T2, serotoninergic receptor 5-HT2C (Homo sapiens, UniProt P28335); test: Binding assay 5-HT2C (h), [3H]mesulergine, HEK-293 cells; conditions: read-out: 5-HT2C [%]
T2 construct: expressed in transfected cells; host or cells: HEK-293 cells
T2 sequence (P28335 33-458): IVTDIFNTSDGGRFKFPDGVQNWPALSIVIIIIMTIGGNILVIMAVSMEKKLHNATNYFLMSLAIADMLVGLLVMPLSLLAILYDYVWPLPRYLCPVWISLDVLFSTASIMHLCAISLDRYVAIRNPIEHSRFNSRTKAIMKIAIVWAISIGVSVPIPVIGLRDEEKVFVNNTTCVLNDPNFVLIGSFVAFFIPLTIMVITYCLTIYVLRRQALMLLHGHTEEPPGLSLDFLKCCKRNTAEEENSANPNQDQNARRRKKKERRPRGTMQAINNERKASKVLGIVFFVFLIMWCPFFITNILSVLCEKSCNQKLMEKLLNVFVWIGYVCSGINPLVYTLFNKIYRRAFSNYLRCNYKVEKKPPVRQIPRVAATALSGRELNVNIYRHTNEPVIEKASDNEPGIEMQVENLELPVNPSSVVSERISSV
In short: as §1

[4] = molecular target: T3, adrenergic α1A receptor (Homo sapiens, UniProt P35348); test: Cellular functional assay, adrenergic α1A receptor (agonism/antagonism); type: cell-based; conditions: for activation at 1 µM: agonist effect, percent of control specific agonist response, compounds tested at 1×10^−6M, read-out: α1A -ag [%]; for inhibition at 1 µM: read-out: α1A -antag. [%]
T3 sequence (P35348 1-466): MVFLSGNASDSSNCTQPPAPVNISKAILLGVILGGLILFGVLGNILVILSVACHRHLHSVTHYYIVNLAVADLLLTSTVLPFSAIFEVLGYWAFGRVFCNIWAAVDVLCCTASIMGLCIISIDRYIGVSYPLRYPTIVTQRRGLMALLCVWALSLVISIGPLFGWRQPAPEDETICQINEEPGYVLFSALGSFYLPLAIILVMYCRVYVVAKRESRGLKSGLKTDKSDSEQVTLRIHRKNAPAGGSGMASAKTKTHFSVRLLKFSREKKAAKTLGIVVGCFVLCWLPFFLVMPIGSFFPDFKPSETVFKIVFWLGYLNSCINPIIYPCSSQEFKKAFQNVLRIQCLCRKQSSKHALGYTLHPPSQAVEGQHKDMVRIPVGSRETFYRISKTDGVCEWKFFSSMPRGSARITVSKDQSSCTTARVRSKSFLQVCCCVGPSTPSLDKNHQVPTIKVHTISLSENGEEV
Description: (§4) […]. The compounds were tested at the concentration of 1×10^−6M.
(§5) Conditions and methodology (by reference to the literature) of cellular functional assays are given in Table 13 and the tests results for representative compounds are given in Table 14 (dopaminergic receptor D2), in Table 15 (dopaminergic receptor D3), in Table 16 (serotoninergic receptor 5-HT1A), in Table 17 (serotoninergic receptor 5-HT2A), in Table 18 (serotoninergic receptor 5-HT6), in Table 19 (serotoninergic receptor 5-HT7), in Table 20 (adrenergic α1 receptor), in Table 21 (adrenergic α2C receptor), in Table 22 (histaminergic H1 receptor) and in Table 23 (serotoninergic 5-HT2C receptor). In the Tables ag refers to agonism, and antag to antagonism).

[5] = molecular target: dopaminergic D3 receptor (Homo sapiens, UniProt P35462); test: Cellular functional assay, dopaminergic D3 receptor (agonism/antagonism); type: cell-based; conditions: for inhibition at 1 µM: CHO, read-out: D3-antag. [%]; for activation at 1 µM: agonist effect, percent of control specific agonist response (300 nM dopamine for control), 1×10^−6 M, D3 (h), CHO cells, read-out: D3-ag [%]
Description: as §2, §3

[6] = molecular target: T4, muscarinic M3 receptor (Homo sapiens, UniProt P20309); test: Binding assay M3 (h), [3H]4-DAMP, CHO cells; conditions: read-out: M3 [%]
T4 construct: expressed in transfected cells; host or cells: CHO cells
In short: as §1

[7] = molecular target: serotoninergic 5-HT7 receptor (Homo sapiens, UniProt P34969); test: Binding assay 5-HT7 (h), [3H]LSD, CHO cells; parameters: expressed in transfected cells; host or cells: CHO cells; conditions: read-out: 5-HT7
In short: as §1

[8] = molecular target: serotoninergic 5-HT2A receptor (Homo sapiens, UniProt P28223); test: Cellular functional assay, serotoninergic 5-HT2A receptor (agonism/antagonism); type: cell-based; conditions: for activation at 1 µM: read-out: 5-HT2A -ag [%]; for inhibition at 1 µM: read-out: 5-HT2A -antag [%]
Description: as §4, §5

[9] = molecular target: serotoninergic 5-HT6 receptor (Homo sapiens, UniProt P50406); test: Cellular functional assay, serotoninergic 5-HT6 receptor (agonism/antagonism); type: cell-based; conditions: for activation at 1 µM: agonist effect, percent of control specific agonist response, compounds tested at 1×10^−6M, read-out: 5-HT6-ag [%]; for inhibition at 1 µM: read-out: 5-HT6-antag. [%]
Description: as §2, §3

[10] = molecular target: T1, histaminergic H1 receptor; test: Cellular functional assay, histaminergic H1 receptor (agonism/antagonism); type: cell-based; conditions: for activation at 1 µM: agonist effect, percent of control specific agonist response, compounds tested at 1×10^−6M, read-out: H1 -ag [%]; for inhibition at 1 µM: read-out: H1 -antag. [%]
Description: as §2, §3

Chain of serotoninergic 5-HT6 receptor (P50406 whole entry): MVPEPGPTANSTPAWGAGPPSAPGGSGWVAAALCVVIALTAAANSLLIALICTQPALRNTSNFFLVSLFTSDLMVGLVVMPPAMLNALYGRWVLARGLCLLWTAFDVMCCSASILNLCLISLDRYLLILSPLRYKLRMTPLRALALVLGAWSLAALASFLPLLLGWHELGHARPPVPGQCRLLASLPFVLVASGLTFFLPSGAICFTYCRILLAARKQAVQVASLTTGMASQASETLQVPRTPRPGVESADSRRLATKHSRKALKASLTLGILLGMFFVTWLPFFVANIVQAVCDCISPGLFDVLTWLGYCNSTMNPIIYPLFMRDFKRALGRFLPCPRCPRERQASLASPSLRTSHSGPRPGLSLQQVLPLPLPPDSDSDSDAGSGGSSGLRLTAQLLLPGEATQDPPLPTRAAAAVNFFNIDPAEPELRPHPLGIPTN
Chain of dopaminergic D2 receptor (P14416 whole entry): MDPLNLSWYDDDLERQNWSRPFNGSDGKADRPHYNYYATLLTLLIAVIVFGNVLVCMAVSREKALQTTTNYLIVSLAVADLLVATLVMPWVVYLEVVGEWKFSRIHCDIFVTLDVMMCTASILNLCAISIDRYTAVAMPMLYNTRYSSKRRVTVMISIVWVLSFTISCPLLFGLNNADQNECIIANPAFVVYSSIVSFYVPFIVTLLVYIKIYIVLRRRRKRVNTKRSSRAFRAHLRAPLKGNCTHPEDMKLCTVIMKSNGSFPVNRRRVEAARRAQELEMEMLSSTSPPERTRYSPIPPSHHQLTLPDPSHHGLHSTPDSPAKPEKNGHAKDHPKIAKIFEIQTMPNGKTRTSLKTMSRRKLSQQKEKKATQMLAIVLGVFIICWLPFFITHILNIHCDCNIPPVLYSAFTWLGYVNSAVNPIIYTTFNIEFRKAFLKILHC
T4 sequence (P20309 whole entry): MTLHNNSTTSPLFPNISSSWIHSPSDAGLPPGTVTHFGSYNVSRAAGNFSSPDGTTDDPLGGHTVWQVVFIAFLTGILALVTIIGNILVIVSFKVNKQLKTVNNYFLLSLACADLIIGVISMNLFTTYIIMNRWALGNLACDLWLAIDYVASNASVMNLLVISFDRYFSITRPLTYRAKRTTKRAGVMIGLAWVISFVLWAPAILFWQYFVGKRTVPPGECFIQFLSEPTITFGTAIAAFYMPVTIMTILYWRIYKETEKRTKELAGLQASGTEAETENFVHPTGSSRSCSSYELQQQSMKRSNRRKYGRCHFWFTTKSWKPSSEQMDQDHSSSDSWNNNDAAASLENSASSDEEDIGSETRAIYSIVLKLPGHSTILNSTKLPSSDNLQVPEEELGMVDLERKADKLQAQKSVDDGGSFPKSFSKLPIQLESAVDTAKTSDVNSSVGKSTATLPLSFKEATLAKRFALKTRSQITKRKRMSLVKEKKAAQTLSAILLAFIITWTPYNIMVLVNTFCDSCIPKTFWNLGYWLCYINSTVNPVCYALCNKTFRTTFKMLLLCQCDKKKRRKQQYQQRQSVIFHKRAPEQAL
Chain of serotoninergic 5-HT2A receptor (P28223 whole entry): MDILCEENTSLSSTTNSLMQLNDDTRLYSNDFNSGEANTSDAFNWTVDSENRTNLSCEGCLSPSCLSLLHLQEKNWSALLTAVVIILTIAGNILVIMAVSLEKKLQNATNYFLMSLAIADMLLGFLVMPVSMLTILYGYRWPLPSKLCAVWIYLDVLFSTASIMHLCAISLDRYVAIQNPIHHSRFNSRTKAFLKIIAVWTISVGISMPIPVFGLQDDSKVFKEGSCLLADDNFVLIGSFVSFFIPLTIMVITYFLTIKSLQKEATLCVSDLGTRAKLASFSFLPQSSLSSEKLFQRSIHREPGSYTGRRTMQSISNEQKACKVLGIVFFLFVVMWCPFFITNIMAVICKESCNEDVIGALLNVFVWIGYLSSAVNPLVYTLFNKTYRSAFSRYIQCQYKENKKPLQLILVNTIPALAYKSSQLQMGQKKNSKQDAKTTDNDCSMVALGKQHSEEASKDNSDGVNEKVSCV
Chain of serotoninergic 5-HT7 receptor (P34969 whole entry): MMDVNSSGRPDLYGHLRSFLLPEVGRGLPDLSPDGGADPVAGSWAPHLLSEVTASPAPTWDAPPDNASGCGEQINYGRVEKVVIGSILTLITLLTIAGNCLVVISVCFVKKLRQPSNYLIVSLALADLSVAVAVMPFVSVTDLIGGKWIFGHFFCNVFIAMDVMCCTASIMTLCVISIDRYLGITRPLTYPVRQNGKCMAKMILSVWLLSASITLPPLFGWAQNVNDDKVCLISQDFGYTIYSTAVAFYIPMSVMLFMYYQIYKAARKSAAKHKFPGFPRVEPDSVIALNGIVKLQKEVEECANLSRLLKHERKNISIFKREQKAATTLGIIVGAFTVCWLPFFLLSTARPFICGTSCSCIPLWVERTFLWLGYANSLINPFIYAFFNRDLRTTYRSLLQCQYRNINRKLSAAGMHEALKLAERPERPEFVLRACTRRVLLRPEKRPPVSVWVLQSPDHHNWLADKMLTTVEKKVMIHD
T1 sequence (P35367 whole entry): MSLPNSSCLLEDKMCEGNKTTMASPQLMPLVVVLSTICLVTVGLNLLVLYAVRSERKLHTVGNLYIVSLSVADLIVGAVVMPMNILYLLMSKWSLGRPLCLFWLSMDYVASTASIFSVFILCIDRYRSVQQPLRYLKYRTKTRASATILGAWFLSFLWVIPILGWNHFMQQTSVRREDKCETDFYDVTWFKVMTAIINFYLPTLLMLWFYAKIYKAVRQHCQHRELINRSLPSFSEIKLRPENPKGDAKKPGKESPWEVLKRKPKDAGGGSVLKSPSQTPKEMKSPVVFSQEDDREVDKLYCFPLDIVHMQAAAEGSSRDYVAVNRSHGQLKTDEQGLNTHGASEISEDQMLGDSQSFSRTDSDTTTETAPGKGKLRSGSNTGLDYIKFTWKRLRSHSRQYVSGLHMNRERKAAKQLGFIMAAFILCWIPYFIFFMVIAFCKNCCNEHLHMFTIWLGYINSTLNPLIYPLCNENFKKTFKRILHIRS
Chain of dopaminergic D3 receptor (P35462 whole entry): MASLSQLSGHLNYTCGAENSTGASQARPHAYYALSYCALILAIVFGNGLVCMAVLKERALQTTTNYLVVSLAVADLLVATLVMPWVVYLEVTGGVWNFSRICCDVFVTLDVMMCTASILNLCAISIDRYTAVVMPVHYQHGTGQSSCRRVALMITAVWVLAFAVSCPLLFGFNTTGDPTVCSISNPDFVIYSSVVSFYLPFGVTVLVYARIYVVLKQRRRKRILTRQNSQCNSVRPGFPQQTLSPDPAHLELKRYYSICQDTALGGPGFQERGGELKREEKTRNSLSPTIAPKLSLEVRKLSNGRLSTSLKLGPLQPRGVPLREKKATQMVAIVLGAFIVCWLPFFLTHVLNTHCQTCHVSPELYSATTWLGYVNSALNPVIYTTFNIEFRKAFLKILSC

SMILES | inhibition at 1 µM [1] [%] | activation at 1 µM [2] [%] | inhibition at 1 µM [2] [%] | inhibition at 1 µM [3] [%] | activation at 1 µM [4] [%] | inhibition at 1 µM [4] [%] | inhibition at 1 µM [5] [%] | activation at 1 µM [5] [%] | inhibition at 1 µM [6] [%] | inhibition at 1 µM [7] [%] | activation at 1 µM [8] [%] | inhibition at 1 µM [8] [%] | activation at 1 µM [9] [%] | inhibition at 1 µM [9] [%] | activation at 1 µM [10] [%] | inhibition at 1 µM [10] [%]
O=S(=O)(NCCCCN1CCN(c2cccc3[nH]ccc23)CC1)c1cc2ccc(Cl)cc2s1 [Compound 363, 6-Chloro-N-[4-[4-(1H-indol-4-yl)piperazin-1-yl]butyl]benzothiophene-2-sulphonamide] | 70 | 50 | 94 | 57 | 0 | 100 | -3 | 65 | 15 | 98 | -1 | 62 |  |  |  | 
O=S(=O)(NCCCCN1CCN(c2cccc3[nH]ccc23)CC1)c1cc2ccccc2s1 [Compound 33, N-{4-[4-(1H-Indol-4-yl)piperazin-1-yl]butyl}-1-benzothiophene-2-sulphonamide] | 56 | 37 | 98 | 27 | 0 | 100 | -1 | 60 | 5 | 99 | -1 | 41 |  |  |  | 
O=S(=O)(NCCCCN1CCN(c2noc3ccccc23)CC1)c1ccc2ccccc2c1 [Compound 14, N-(4-(4-(1,2-Benzoxazol-3-yl)piperazin-1-yl)butyl)naphthalene-2-sulphonamide] | 88 | 4 | 98 | 51 | 0 | 100 | 92 | -15 | -6 | 99 | 1 | 100 | 1 | 69 |  | 
O=S(=O)(NCCCCN1CCN(c2cccc3[nH]ccc23)CC1)c1ccc2ccccc2c1 [Compound 26, N-{4-[4-(1H-Indol-4-yl)piperazin-1-yl]butyl}naphthalene-2-sulphonamide] | 52 | 29 | 99 | 19 | 0 | 100 | -8 | 64 | 17 | 98 | -1 | 77 |  |  |  | 
O=S(=O)(NCCCCN1CCC(c2noc3cc(F)ccc23)CC1)c1ccc2ccccc2c1 [Compound 18, N-[4-[4-(6-Fluoro-1,2-benzoxazol-3-yl)piperidin-1-yl]butyl]naphthalene-2-sulphonamide] | 79 | -1 | 98 | 73 | 0 | 99 | 114 | -27 | 6 | 98 | -1 | 102 | 1 | 87 |  | 
O=S(=O)(NCCCCN1CCN(c2noc3ccccc23)CC1)c1ccc2cc(Cl)ccc2c1 [Compound 79, N-[4-[4-(1,2-Benzoxazol-3-yl)piperazin-1-yl]butyl]-6-chloro-naphthalene-2-sulphonamide] | 96 | 3 | 77 | 72 |  |  | 77 | -9 | 12 | 97 | -2 | 97 | 1 | 76 | 0 | 57
O=S(=O)(NCCCCN1CCC(c2noc3cc(F)ccc23)CC1)c1cc2ccccc2s1 [Compound 312, N-[4-[4-(6-Fluoro-1,2-benzoxazol-3-yl)piperidin-1-yl]butyl]benzothiophene-2-sulphonamide] | 86 | 4 | 90 | 80 | 0 | 100 | 97 | 10 | 19 | 97 | -2 | 98 | -1 | 76 |  | 
Cc1cccc(S(=O)(=O)NCCCN2CCC(c3noc4cc(F)ccc34)CC2)c1 [Compound 22, N-[3-[4-(6-Fluoro-1,2-benzoxazol-3-yl)piperidin-1-yl]propyl]-3-methylbenzenesulphonamide] | 88 | 2 | 99 | 73 | 0 | 100 | 81 | -25 | 12 | 99 | -1 | 102 | 1 | 82 |  | 
O=S(=O)(NCCCCN1CCN(c2noc3ccccc23)CC1)c1ccc(-c2ccccc2)cc1 [Compound 283, N-[4-[4-(1,2-Benzoxazol-3-yl)piperazin-1-yl]butyl]-4-phenylbenzenesulphonamide] | 96 |  |  | 80 | 0 | 100 | 58 | -10 | -4 | 99 | 0 | 99 | 0 | 64 | 0 | 41
Cc1c(S(=O)(=O)NCCCCN2CCN(c3nsc4ccccc34)CC2)sc2ccc(F)cc12 [Compound 65, N-[4-[4-(1,2-Benzothiazol-3-yl)piperazin-1-yl]butyl]-5-fluoro-3-methylbenzothiophene-2-sulphonamide] | 95 | 10 | 74 | 95 | 0 | 98 |  |  | 8 | 98 | -2 | 98 | -1 | 81 | 0 | 60
